These results are taken from patent US9085608B2, “Treatment of biofilms” (LYTIX BIOPHARMA AS, priority 2008, dated 2015).

Assay [1] concerns 24 h old biofilm of 6 different staphylococcal strains. Put plainly: Biofilm metabolic activity, Alamar blue reduction. The conditions noted are these: 50 mg/L, 24 h treatment; all biofilms except S. aureus PIA 9. Type of assay: cell-based, S. epidermidis, S. haemolyticus, S. aureus. (In general: The colour change of resazurin is a common sign of viable cells or microbes.)
Description: Biofilm formation was induced in 96-well flat bottom microtitre plates (Nunclon Surface, NUNC, Roskilde, Denmark). First, overnight cultures were diluted 1:100 in MHIIB (S. epidermidis and S. haemolyticus) or tryptic soy broth (TSB) with 5% glucose and 5% NaCl (S. aureus). Two hundred of this bacterial suspension (10^7 cfu/ml) was added to each well and incubated for 24 h at 37° C. After 24 h the wells were carefully washed twice with phosphate-buffered saline (PBS) to remove planktonic bacteria. The washing procedure was evaluated by measuring metabolic activity of the PBS with the Alamar blue method, described in detail below.
The washed biofilms were subjected to treatment with antibiotics or SAMPs at different concentrations. Stock solutions of the tetracycline (Sigma Aldrich), vancomycin (Alpharma) and linezolid (Pfizer) were diluted in MHIIB to 5 mg/L, 50 mg/L and 500 mg/L, and rifampicin (Sigma Aldrich) was diluted in MHIIB to 0.01 mg/L, 0.1 mg/L and 1 mg/L. Trifluoroacetate salts of the SAMPs were dissolved in sterile water and diluted to 5 mg/L, 50 mg/L and 500 mg/L in MHIIB. 200 μl of antibiotics or SAMPs, in different concentrations, were added to each well and incubated for 24 h at 37° C. Positive controls were untreated biofilms only added 200 μl MHIIB. Negative controls were only 200 μl MHIIB, with no bacteria added.
We quantified the metabolic activity of biofilm with a slightly modified method previously described by Pettit et al. in Antimicrob. […] Briefly, the wells were washed twice with PBS. We then added 250 μl MHIIB with 5% Alamar blue (AB; Invitrogen, Carlsbad, Calif., USA) to each well. AB is a redox indicator which both fluoresces and changes colour in response to chemical reduction. The extent of reduction is a reflection of bacterial cell viability. After 1 h incubation at 37° C., absorbance was recorded at 570 and 600 nm using Versamax tuneable microplate reader (Molecular Devices, Sunnyvale, Calif., USA). […] The highest and lowest value of each run was excluded from the analyses, and the remaining 18 values were averaged.
The percent reduction of AB was calculated according to the manufacturer's formula (Invitrogen, Carlsbad, USA). We calculated mean and standard deviations (SD) of all repeated measurements.
We defined two levels of antimicrobial suppression of metabolic activity.
Assay [2] has as its system Staphylococcus haemolyticus TUH 51-07. In words: microbe, parasite or virus in culture. The procedure: (§1) Bacteria were grown overnight at 37° C. in cation adjusted Mueller-Hinton II Broth (MHIIB).
(§2) We determined the MICs of oxacillin, gentamicin, tetracycline, vancomycin and linezolid using E-test (AB Biodisk, Solna, Sweden) and MICs of rifampicin using broth microdilution assay. Breakpoints were interpreted according to EUCAST criteria. […] All 3 SAMPs are tripeptides with two arginine residues providing their cationic moieties (FIG. 1). The lipophilic bulk is provided by a modified tryptophane derivate. […] The molecular weights of the SAMPs are in the range of 700-800 Dalton.

Assay [3] has as its system Staphylococcus aureus PIA 9. In words: microbe, parasite or virus in culture. The procedure:
as §1, §2

Assay [4] deals with Staphylococcus epidermidis RP62A ATCC 35984. In words: microbe, parasite or virus in culture. The procedure:
as §1, §2

Assay [5] relates to Staphylococcus epidermidis TUH 08-16. In words: microbe, parasite or virus in culture. The procedure: as §1, §2
Assay [6] has as its system Staphylococcus haemolyticus TUH 51-03. In words: microbe, parasite or virus in culture. The procedure:
as §1, §2

Assay [7] concerns Staphylococcus aureus PIA90. Put plainly: microbe, parasite or virus in culture. The procedure:
as §1, §2

The test system of assay [8] is S. haemolyticus TUH 51-07 biofilm. In words: Biofilm imaging, LIVE/DEAD staining and confocal laser scanning microscopy. The assay is classed as cell-based, Staphylococcus haemolyticus. The conditions noted are these: 24 h treatment. The procedure:
One ml aliquots of MHIIB-diluted overnight culture was used to grow S. haemolyticus TUH 51-07 biofilm on plastic coverslides (Thermanox, cellculture treated on one side, NUNC, Roskilde, Denmark) in 24-well dishes (Falcon 3047, Becton Dickinson, NJ, USA) for 24 h. The coverslides were then washed carefully with PBS, moved to a new plate and treated for 24 h with tetracycline 50 mg/L and 500 mg/L, vancomycin 50 mg/L and 500 mg/L, or Compound A 50 mg/L and 500 mg/L. The coverslides were washed again with […] and stained with a LIVE/DEAD kit (Invitrogen Molecular Probes, Eugene, Oreg., USA) following the manufacturer's instructions. This stain contains SYTO 9 (green fluorescent) and propidium iodide (PI; red fluorescent), both binding to DNA. When used alone, the SYTO 9 generally stains all bacteria in a population; both those with intact and those with damaged membranes. In contrast, PI penetrates only bacteria with damaged membranes, causing a reduction in the SYTO 9 stain green fluorescence when both dyes are present. We examined treated and untreated biofilms with a Leica TCS SP5 (Leica Microsystems CMS Gmbh, Mannheim, Germany) confocal laser scanning microscope (CLSM). Images were obtained using a 63×1.2 NA HCX PL APO water immersion lens. For detection of SYTO9 (green channel), we used the 488 nm line of the argon laser and a detection bandwidth of 495-515 nm. For PI detection (red channel), we used the 561 nm line and a detection bandwidth of 615-660 nm. The two fluorescent-signals were collected sequentially at 400 Hz. Image analyses and export was performed in Leica LAS AF version 1.8.2.

Assay [9] has as its system six staphylococcal strains (2 S. epidermidis, 2 S. haemolyticus and 2 S. aureus). In words: Susceptibility testing under planktonic growth condition, EUCAST breakpoints. The assay is classed as cell-based. The conditions noted are these: EUCAST criteria. The procedure: The six staphylococcal strains (2 S. epidermidis, 2 S. haemolyticus and 2 S. aureus) used in this study were selected based on their previously known biofilm forming capacity (Table 1).
as §1
We determined the MICs of oxacillin, gentamicin, tetracycline, vancomycin and linezolid using E-test (AB Biodisk, Solna, Sweden) and MICs of rifampicin using broth microdilution assay. Breakpoints were interpreted according to EUCAST criteria. We selected 3 different SAMPs (Compounds A, B and C; Lytix Biopharma, Tromsø, Norway—see FIG. 1) based on previously known antimicrobial activities, and determined their exact MICs with broth microdilution assay. All 3 SAMPs are tripeptides with two arginine residues providing their cationic moieties (FIG. 1). The lipophilic bulk is provided by a modified tryptophane derivate. The difference between the compounds is the size of the C-terminal modification; Compound A has the smallest and Compound B has the largest C-terminal modification (FIG. 1). The molecular weights of the SAMPs are in the range of 700-800 Dalton.

The mark [10] stands for this setting: planktonic, SE RP62A ATCC 35984.
The mark [11] stands for this setting: Staphylococcus haemolyticus, TUH5107.
[12] abbreviates: Staphylococcus epidermidis, ATCC35984.
Setting [13] is: Staphylococcus epidermidis, TUH0816.
[14] abbreviates: Staphylococcus haemolyticus, TUH5103.
Setting [15] is: the four other staphylococcal strains.

In brackets after ≈: the same amount, converted by molar mass. Entries after “also recorded” stand apart in the source; their conditions may differ. Where two headings read alike, the source gives them in different places. Bounds are passed on as bounds.

`CC(C)NC(=O)[C@H](CCCNC(=N)N)NC(=O)[C@H](Cc1c(C(C)(C)C)[nH]c2c(C(C)(C)C)cc(C(C)(C)C)cc12)NC(=O)[C@@H](N)CCCNC(=N)N` [Compound A]: in assay [1], the “suppression of metabolic activity (AB reduction)” value (“suppression … (AB reduction)” below) was “strong or complete suppression”. Also, the MIC came out at 8 µg/mL (≈ 11 µM) in [2]; 8 µg/mL (≈ 11 µM) in [3] (PIA 9); 8 µg/mL (≈ 11 µM) in [4] (ATCC 35984); 4 µg/mL (≈ 5.51 µM) in [5] (TUH 08-16); 8 µg/mL (≈ 11 µM) in assay [6]; 8 µg/mL (≈ 11 µM) in assay [7] (PIA90). For the same compound, the “LIVE/DEAD staining of biofilm cells (CLSM)” value in assay [8] (50 mg/L) was “almost all cells are stained red”; in assay [8] (500 mg/L), “almost all cells are stained red; also recorded: membrane damage of all cells”.

For the compound `CC(C)(C)c1cc(C(C)(C)C)c2[nH]c(C(C)(C)C)c(C[C@H](NC(=O)[C@@H](N)CCCNC(=N)N)C(=O)N[C@@H](CCCNC(=N)N)C(=O)NCCc3ccccc3)c2c1` [Compound B], in [1], the “suppression … (AB reduction)” value was “strong or complete suppression”. Further, the MIC in [2] (planktonic, SH TUH 51-07) was 4 µg/mL (≈ 5.08 µM); in assay [3] (planktonic, SA PIA 9) it was 2 µg/mL (≈ 2.54 µM); in [4] (setting [10]), 4 µg/mL (≈ 5.08 µM); in assay [5] (planktonic, SE TUH 08-16) it was 2 µg/mL (≈ 2.54 µM); in [6] (planktonic, SH TUH 51-03), 4 µg/mL (≈ 5.08 µM); in [7] (planktonic, SA PIA90), 2 µg/mL (≈ 2.54 µM).

Consider `CCCCCCNC(=O)[C@H](CCCNC(=N)N)NC(=O)[C@H](Cc1c(C(C)(C)C)[nH]c2c(C(C)(C)C)cc(C(C)(C)C)cc12)NC(=O)[C@@H](N)CCCNC(=N)N` [Compound C], for which the “suppression … (AB reduction)” value in assay [1] is given as “strong or complete suppression”. Further, the MIC came to 4 µg/mL (≈ 5.21 µM) in [2]; 4 µg/mL (≈ 5.21 µM) in assay [3] (PIA 9); 4 µg/mL (≈ 5.21 µM) in assay [4] (ATCC 35984); 2 µg/mL (≈ 2.6 µM) in assay [5] (TUH 08-16); 4 µg/mL (≈ 5.21 µM) in assay [6]; 2 µg/mL (≈ 2.6 µM) in assay [7] (PIA90).

As to `CC(=O)NC[C@H]1CN(c2ccc(N3CCOCC3)c(F)c2)C(=O)O1` [LZD, linezolid], in [9] (all 6 strains), the “susceptibility under planktonic growth” value is recorded as “susceptible; also recorded: sensitive”. Also, the MIC was 0.5 µg/mL (≈ 1.48 µM) in [2] (setting [11]); 2 µg/mL (≈ 5.93 µM) in assay [3] (Staphylococcus aureus, PIA9); 1 µg/mL (≈ 2.96 µM) in [4] (setting [12]); 2 µg/mL (≈ 5.93 µM) in assay [5] (setting [13]); 0.5 µg/mL (≈ 1.48 µM) in assay [6] (setting [14]); 1 µg/mL (≈ 2.96 µM) in assay [7] (Staphylococcus aureus, PIA90).

`Cc1onc(-c2ccccc2)c1C(=O)N[C@@H]1C(=O)N2[C@@H]1SC(C)(C)[C@@H]2C(=O)O` [OXA, oxacillin]: the results for the “susceptibility under planktonic growth” value in assay [9] (setting [15]) and in [9] (the two S. aureus strains) were “resistant” and “susceptible”, respectively. Besides, the MIC is greater than 256 µg/mL in [2] (planktonic, SH TUH 51-07); 1 µg/mL (≈ 2.49 µM) in assay [3] (planktonic, SA PIA 9); 8 µg/mL (≈ 19.9 µM) in assay [4] (setting [10]); 16 µg/mL (≈ 39.9 µM) in assay [5] (planktonic, SE TUH 08-16); greater than 256 µg/mL in assay [6] (planktonic, SH TUH 51-03); 1 µg/mL (≈ 2.49 µM) in [7] (planktonic, SA PIA90).

Regarding `CO[C@H]1/C=C/O[C@@]2(C)Oc3c(C)c(O)c4c(O)c(c(/C=N/N5CCN(C)CC5)c(O)c4c3C2=O)NC(=O)/C(C)=C\C=C\[C@H](C)[C@H](O)[C@@H](C)[C@@H](O)[C@@H](C)[C@H](OC(C)=O)[C@@H]1C` [RIF, rifampicin], the MIC in assay [2] (setting [11]) is 0.016 µg/mL (≈ 0.0194 µM); in [3] (Staphylococcus aureus, PIA9), less than 0.016 µg/mL; in [4] (setting [12]), less than 0.016 µg/mL; in assay [5] (setting [13]), 0.016 µg/mL (≈ 0.0194 µM); in [6] (setting [14]), less than 0.016 µg/mL; in assay [7] (Staphylococcus aureus, PIA90) it was 0.016 µg/mL (≈ 0.0194 µM).

gentamicin: the “susceptibility under planktonic growth” value is listed as “resistant” in assay [9] (setting [15]) and “susceptible” in assay [9] (the two S. aureus strains). Further, the MIC in [2] (planktonic, SH TUH 51-07) came to 64 µg/mL; in [3] (planktonic, SA PIA 9), 1 µg/mL; in [4] (setting [10]) it was 8 µg/mL; in assay [5] (planktonic, SE TUH 08-16) it was 256 µg/mL; in [6] (planktonic, SH TUH 51-03) it was 64 µg/mL; in assay [7] (planktonic, SA PIA90), 0.5 µg/mL.
